The source of these data is patent US20190070183A1, “Targeting Casein Kinase-1 and PI3K/AKT/mTOR Pathways for Treatment of c-Myc-Overexpressing Cancers, Organ Transplant Associated Complications and Autoimmune Diseases” (The Trustees of Columbia University in the City of New York, priority 2015, published 2019).

One data set concerns primary SLL cells. Nature of the data set: Cytotoxicity in primary SLL cells (Cell Titer Glo). It counts as cell-based, human. The conditions noted are these: 48 hours, 2.5, 5, and 7.5 nM.
For another data set, the system named is DLBCL cell line LY10. Kind of data set: Growth inhibition / viability of LY10 cells (CellTiter Glo), single agents and combinations, Bliss synergy. It is filed as cell-based, human. The note with it: LY10, 24 h, single agent.
In data set [1] the test system is PI3K-AKT-mTOR-eIF4F-Myc signal cascade in LY10 cells. The note with it: LY10, 24 h, PI3K inhibitors 3 μM, proteasome inhibitors 2 nM, single or combined.
The subject of the next data set is primary AITL cells. Nature of the data set: Cytotoxicity in primary AITL cells. It is filed as cell-based, human.
The target of data set [2] is T1, CK1ε (Homo sapiens, UniProt P49674). Nature of the data set: CK1ε kinase activity assay (ADP-Glo, Promega).
Procedure: CK1ε kinase activity was determined using the CK1ε enzyme system from Promega, according to the manufacturer's instruction. […] The luminescent signal positively correlates with ADP amount and kinase activity.
Next, the CK1ε inhibiting activity of the above compounds was experimentally determined using the ADP-Glo™ Kinase Assay kit from Promega and recombinant CK1ε expressed by baculovirus in Sf9 insect cells.
Data set [3] addresses T1, CK1ε. Nature of the data set: CK1ε autophosphorylation assay (calyculin A, Western blot). It counts as cell-based. The arrangement: Full-length recombinant human CK1ε (CK1epsilon) was expressed by baculovirus in Sf9 insect cells; GST (N); purchased Promega; host or cells: Sf9 insect cells (baculovirus). (In general: Immunoblotting shows a protein as a band on a membrane.)

The nature of the next data set: Western blot, LY7 cells. The conditions noted are these: LY7 and LY10, 24 h. It counts as cell-based, human.
Data set [4] has as its system phosphorylation of 4EBP1 and protein level of c-Myc in LY7 cells. Kind of data set: Western blot, LY7 cells. It counts as cell-based, human. The note with it: for expression of c-Myc at 24 h: single agents.
In data set [5] the target is T1, CK1ε. Nature of the data set: Kinome profiling (Reaction Biology, radioisotope filter binding). The conditions noted are these: cell free, 1 μM.
Procedure: Kinome profiling was performed using the radioisotope filter binding assay from Reaction Biology.
The subject of another data set is DLBCL cell line LY7. Nature of the data set: LY7 viability (Cell Titer Glo). It counts as cell-based, human. The conditions noted are these: for activity inhibiting LY7 lymphoma cells (viability): 24 h, 10-50 μM, single agents. A general note: In ATP-based viability assays light output follows the ATP content of the culture.
The subject of data set [6] is patients with DLBCL. The note with it: 9 patients; Westin 2014; cited from earlier work.
The test system of a further data set is caspase 3/7. Nature of the data set: Activation of caspase 3/7 in LY10. It counts as cell-based, human. The conditions noted are these: LY10, 24 h. The source says: FIG. 3. […] FIG. 3L-N: PARP cleavage.
Data set [7] concerns primary CLL and MCL cells. Kind of data set: Cytotoxicity in primary CLL and MCL cells. The conditions noted are these: 48 hours.
Procedure: Pharmacological activities of PI3K and proteasome inhibitors in primary lymphoma cells. […] Cytotoxicity. Primary cells were isolated by ficoll gradient separation from three patients with SLL (FIG. 6A & FIG. 6B), CLL (FIG. 6C & FIG. 6D), MCL (FIG. 6E & FIG. 6F) respectively. The SLL cells were from pleural fluid, and the CLL and MCL cells were from peripheral blood. The cells were incubated with the experimental drugs as single agents and in combinations for 48 hours. The viability was determined by Cell Titer Glo, and presented as a function of each treatment conditions, as a percentage of the untreated control.
(§1) Blood from consented patients was drawn into 10 ml EDTA-vacutainers. Blood was mixed with PBS containing 2 mM EDTA and 0.5% BSA in a 1:2 Ratio Blood to PBS. Next fifteen milliliters of Ficoll-Paque Plus (GE Healthcare) was pipetted into 50 ml centrifuge tubes, with blood-PBS mixture layered on top. Tubes were centrifuged at 400×g for 40 min at room temperature with no brake. PBMC's in the buffy coat were collected by pipette and washed in EDTA-BSA PBS. Supernatant was removed and 10 ml ACK Lysis Buffer (Thermo Fisher) was used to remove Erythrocytes. Pellets were again washed in EDTA-BSA PBS, resuspended and counted via automated cell counter. Cytotoxicity and Western Blotting assays were performed according to protocol.
Data set [8] concerns cap dependent translation downstream of the 5′ UTR of c-MYC. Kind of data set: Bicistronic luciferase reporter assay for c-Myc 5'UTR driven translation in LY7. The conditions noted are these: LY7 stably expressing reporter, 24 hr, 25 μM. It is filed as cell-based, human. In general terms: A reporter such as luciferase makes a cellular process visible.
The test system of data set [9] is patients with DLBCL. Kind of data set: Clinical trials in patients with DLBCL. It is filed as in vivo, human.
For data set [10], the system named is phosphorylated AKT at Ser473. Kind of data set: Inhibition of S473 p-AKT in serum-starved leukemia and lymphoma cell lines. The note with it: 1 μM, 4 hours. It counts as cell-based, human.
A further data set has as its system MOLT-4 cell line. Kind of data set: Subcutaneous xenograft model of T-ALL (MOLT-4) in NOD/SCID mice. It counts as in vivo. The note with it: daily oral 150 mg/kg, day 24, p<0.001.

T1 sequence (P49674 whole entry): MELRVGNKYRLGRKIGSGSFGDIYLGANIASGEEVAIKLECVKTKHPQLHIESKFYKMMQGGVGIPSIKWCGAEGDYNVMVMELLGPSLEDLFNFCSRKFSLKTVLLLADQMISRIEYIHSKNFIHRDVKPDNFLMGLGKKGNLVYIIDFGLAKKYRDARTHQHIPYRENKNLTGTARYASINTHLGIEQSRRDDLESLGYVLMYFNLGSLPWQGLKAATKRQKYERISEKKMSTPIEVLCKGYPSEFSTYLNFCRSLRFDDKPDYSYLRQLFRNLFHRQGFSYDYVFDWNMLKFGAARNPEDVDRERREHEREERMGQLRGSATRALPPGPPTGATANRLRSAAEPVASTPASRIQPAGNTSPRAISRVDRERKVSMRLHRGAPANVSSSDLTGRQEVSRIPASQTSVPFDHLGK
Procedure for primary AITL cells: as §1

On to `CC(C)C[C@H](NC(=O)[C@H](Cc1ccccc1)NC(=O)c1cnccn1)B(O)O` [Bortezomib, [(1R)-3-methyl-1-({(2S)-3-phenyl-2-[(pyrazin-2-ylcarbonyl)amino]propanoyl}amino)butyl]boronic acid], for which the “inhibition of primary cells” value with primary SLL cells is given as 10-80%. Also, the “percentage of growth inhibition” value is “did not produce significant inhibition” in the data set on DLBCL cell line LY10 (1 to 3 nM) and 42-90% in the data set on DLBCL cell line LY10 (4 to 8 nM). Moreover, the “inhibition of phosphorylation of 4EBP1” value in data set [1] is on record as “marginal or no inhibition”. The “inhibition of phosphorylation of AKT” value in data set [1] was “comparable and modest inhibition”. Moreover, in the data set on primary AITL cells, the “single agent activity in AITL” value was “more potent than carfilzomib”.

The IC50 is the concentration that gives 50% inhibition. Turning to `CC(C)Oc1ccc(-c2nn([C@@H](C)c3nc4cccc(F)c4c(=O)n3-c3ccccc3)c3ncnc(N)c23)cc1F` [CUX-03173], the IC50 against CK1ε [2] worked out at 9.4 µM. Besides, the “autophosphorylation of CK1ε” value at CK1ε [3] (LY7, 15 μM, then calyculin A) is “inhibited”. Further, the beta-catenin level result in the data set “Western blot, LY7 cells” is “inhibited beta-catenin”. For the same compound, the “reduction of protein level of c-Myc” value in data set [4] (LY7, 24 h) was “more effective than idelalisib and PF4800567”. In addition, the “inhibition of protein level of c-Myc” value in data set [4] (LY7 and LY10, 24 h) is reported as “as potent as TGR-1202”.

With `CC(C)C[C@H](NC(=O)[C@H](CCc1ccccc1)NC(=O)CN1CCOCC1)C(=O)N[C@@H](Cc1ccccc1)C(=O)N[C@@H](CC(C)C)C(=O)[C@@]1(C)CO1` [Carfilzomib, (S)-4-methyl-N—((S)-1-(((S)-4-methyl-1-((R)-2-methyloxiran-2-yl)-1-oxopentan-2-yl)amino)-1-oxo-3-phenylpropan-2-yl)-2-((S)-2-(2-morpholinoacetamido)-4-phenylbutanamido)pentanamide], in the data set on primary SLL cells, the “inhibition of primary cells” value is 10-90%. The “percentage of growth inhibition” value with DLBCL cell line LY10 (1 to 2 nM) is “up to 35%”. In addition, in data set [1], the “inhibition of phosphorylation of 4EBP1” value was “marginal or no inhibition”; the “inhibition of phosphorylation of AKT” value is “comparable and modest inhibition”.

For the compound `CC(Nc1ncnc2[nH]cnc12)c1cc2cccc(Cl)c2c(=O)n1-c1ccccc1` (stereo not drawn) [IPI-145], at CK1ε [5], the “inhibition of kinase activity of CK1 epsilon” value was “not observed”.

For `CC[C@H](Nc1ncnc2nc[nH]c12)c1nc2cccc(F)c2c(=O)n1-c1ccccc1` [Idelalisib], the “activity inhibiting LY7 lymphoma cells (viability)” value in the data set on DLBCL cell line LY7 was “only mild and comparable activity”. In the data set with patients with DLBCL [6], the “responses in patients with DLBCL” value is “did not produce any responses”. In the data set on caspase 3/7 (5 μM added to bortezomib), the “effect on caspase activation caused by bortezomib” value was “failed to augment”. The compound also gave an IC50 at CK1ε [2] of more than 50 µM. The “enhancement of cytotoxicity of bortezomib” value in [7] is “did not enhance”. Also, the “inhibition of kinase activity of CK1 epsilon” value on CK1ε [5] was “not observed”. Moreover, in data set [1], the “inhibition of phosphorylation of 4EBP1” value is reported as “moderately inhibit” and the “inhibition of phosphorylation of AKT” value is on record as “more effective than TGR-1202”. Besides, the “single agent activity in AITL” value in the data set with primary AITL cells is reported as “more effective than TGR-1202”. Moreover, in data set [4] (LY7, 6 hours, 25-50 μM), the “suppression of phosphorylation of 4EBP1 and protein level of c-Myc” value (“suppression” for short) is listed as “only at the concentration of 50 μM”. The “expression of c-Myc at 24 h” value in data set [4] (LY7, 24 h) was “rebounded”.

Turning to `Nc1ncnc2c1c(COc1cccc(Cl)c1)nn2C1CCOCC1` [PF4800567], the “activity inhibiting LY7 lymphoma cells (viability)” value in the data set with DLBCL cell line LY7 is “only mild and comparable activity”. In [8], the “reduction of ratio of LucR/LucF by 50%” value is “not”. At CK1ε [2], this compound displayed an IC50 of 0.0074 µM. Also, the “autophosphorylation of CK1ε (up-shifting of the CK1ε band)” value on CK1ε [3] (LY7, 1 μM, 1 h pretreatment then calyculin A) is recorded as “no up-shifting”. Further, the “suppression” value in data set [4] (LY7, 6 hours, 25-50 μM) is “only at the concentration of 50 μM”. In addition, the “phosphorylation of p70S6K1” value in [4] (LY7, 24 h) is recorded as “substantially increased”.

With `CC(C)n1nc(-c2cc3cc(O)ccc3[nH]2)c2c(N)ncnc21` [PP242], in data set [4] (LY7, 24 h), the “phosphorylation of p70S6K1” value is “potently inhibited”. In [4] (LY7, 24 h, 750 nM), the “phosphorylation of 4EBP1 at S65” value is listed as “markedly inhibited”. For the same compound, in data set [4] (LY7, 24 h, PP242 treatment), the “level of c-Myc” value is reported as “moderately reduced”.

For `CC(C)Oc1ccc(-c2nn([C@@H](C)c3oc4ccc(F)cc4c(=O)c3-c3cccc(F)c3)c3ncnc(N)c23)cc1F` [TGR-1202], in the data set on DLBCL cell line LY7, the “activity inhibiting LY7 lymphoma cells (viability)” value is “significantly more effective than idelalisib and PF4800567”. Further, in the data set on DLBCL cell line LY7 (LY7, 24 h), the “potency in cytotoxicity assay” value is “most potent among these compounds”. Besides, the “synergy with PP242 inhibiting phosphorylation of 4EBP1 at T70 and cell viability” value in the data set on DLBCL cell line LY7 (LY7, PP […], other drugs 5 and 15 μM) is “synergistic with PP242”. The “effect on caspase 3/7 activation by carfilzomib” value in the data set on caspase 3/7 (1 μM added to carfilzomib) is listed as “markedly enhanced”. In the data set with patients with DLBCL [9], the “partial response in patients with DLBCL” value is 3 of 14. Also, the IC50 against CK1ε [2] came out at 6 µM. The “inhibition of phosphorylation of 4EBP1” value in [1] is “moderately inhibit”. Moreover, the “reduction of phosphorylation of AKT (Ser473)” value in data set [10] is recorded as 43-87%. Further, the beta-catenin level entry in the data set “Western blot, LY7 cells” was “inhibited beta-catenin”. The “suppression” value in [4] (LY7, 6 h, 15-50 μM) is “more potent than idelalisib and PF4800567”. Further, the “suppression” value in data set [4] (LY7, 6 hours, 25-50 μM) is listed as “potently suppressed”. Besides, in [4] (LY7, 24 h), the “reduction of protein level of c-Myc” value is “more effective than idelalisib and PF4800567”; the “expression of c-Myc at 24 h” value was “not relieved”. Besides, the “inhibition of phosphorylation of 4EBP1 and protein level of c-Myc” value in [4] (LY7, 24 h, 25 μM) was “highly effective”. In the data set on MOLT-4 cell line, the “tumor response in xenograft” value is listed as “significantly shrank the tumors”.
